How the values were obtained:
Format in all cases: cell-based
[1] = biological target: proteins of U3A human fibrosarcoma cells (4462 proteins detected) (Homo sapiens, UniProt Q9NXW2); details: protein DNAJB12; soluble abundance after heat, U3A cells
[2] = biological target: proteins of U3A human fibrosarcoma cells (4462 proteins detected) (Homo sapiens, UniProt Q9HAS0); details: protein C17orf75; U3A cells
[3] = biological target: proteins of U3A human fibrosarcoma cells (4462 proteins detected) (Homo sapiens, UniProt Q6YHU6); details: protein THADA; soluble abundance after heat, U3A cells
[4] = biological target: proteins of U3A human fibrosarcoma cells (4462 proteins detected) (Homo sapiens, UniProt P17706); details: protein PTPN2, U3A cells
[5] = biological target: proteins of U3A human fibrosarcoma cells (4462 proteins detected) (Homo sapiens, UniProt O60563); details: protein CCNT1; U3A cells
[6] = biological target: proteins of U3A human fibrosarcoma cells (4462 proteins detected) (Homo sapiens, UniProt O95372); details: protein LYPLA2; soluble abundance after heat, U3A cells
[7] = biological target: proteins of U3A human fibrosarcoma cells (4462 proteins detected) (Homo sapiens, UniProt O75976); details: protein CPD; soluble abundance after heat, U3A cells
[8] = biological target: proteins of U3A human fibrosarcoma cells (4462 proteins detected) (Homo sapiens, UniProt P62873); details: protein GNB1; U3A cells
[9] = biological target: proteins of U3A human fibrosarcoma cells (4462 proteins detected) (Homo sapiens, UniProt Q14974); details: protein KPNB1; soluble abundance after heat, U3A cells
[10] = biological target: proteins of U3A human fibrosarcoma cells (4462 proteins detected) (Homo sapiens, UniProt P26583); details: protein HMGB2; U3A, 10 μM, 2 h
[11] = biological target: proteins of U3A human fibrosarcoma cells (4462 proteins detected) (Homo sapiens, UniProt Q9BRA2); details: protein TXNDC17, U3A cells
[12] = biological target: proteins of U3A human fibrosarcoma cells (4462 proteins detected) (Homo sapiens, UniProt P78317); details: protein RNF4, U3A cells
[13] = biological target: proteins of U3A human fibrosarcoma cells (4462 proteins detected) (Homo sapiens, UniProt Q9BVW5); details: protein TIPIN, U3A cells
[14] = biological target: proteins of U3A human fibrosarcoma cells (4462 proteins detected) (Homo sapiens, UniProt Q96A26); details: protein FAM162A; U3A, 10 μM, 2 h
[15] = biological target: proteins of U3A human fibrosarcoma cells (4462 proteins detected) (Homo sapiens, UniProt Q86TU7); details: protein SETD3; U3A cells
[16] = biological target: proteins of U3A human fibrosarcoma cells (4462 proteins detected) (Homo sapiens, UniProt P56277); details: protein CMC4; U3A, 10 μM, 2 h
[17] = biological target: proteins of U3A human fibrosarcoma cells (4462 proteins detected) (Homo sapiens, UniProt Q96TA2); details: protein YME1L1; U3A cells
[18] = biological target: proteins of U3A human fibrosarcoma cells (4462 proteins detected) (Homo sapiens, UniProt Q8N129); details: protein CNPY4, U3A cells
[19] = biological target: proteins of U3A human fibrosarcoma cells (4462 proteins detected) (Homo sapiens, UniProt Q03188); details: protein CENPC, U3A cells
[20] = biological target: proteins of U3A human fibrosarcoma cells (4462 proteins detected) (Homo sapiens, UniProt Q9NVT9); details: protein ARMC1; U3A cells
[21] = biological target: proteins of U3A human fibrosarcoma cells (4462 proteins detected) (Homo sapiens, UniProt Q9NXR1); details: protein NDE1, U3A cells
[22] = biological target: proteins of U3A human fibrosarcoma cells (4462 proteins detected) (Homo sapiens, UniProt Q7L5Y9); details: protein MAEA; U3A cells
[23] = biological target: proteins of U3A human fibrosarcoma cells (4462 proteins detected) (Homo sapiens, UniProt Q96SN8); details: protein CDK5RAP2; U3A, 10 μM, 2 h
[24] = biological target: proteins of U3A human fibrosarcoma cells (4462 proteins detected) (Homo sapiens, UniProt P49756); details: protein RBM25; U3A cells
[25] = biological target: proteins of U3A human fibrosarcoma cells (4462 proteins detected) (Homo sapiens, UniProt P07602); details: protein PSAP; soluble abundance after heat, U3A cells
[26] = biological target: proteins of U3A human fibrosarcoma cells (4462 proteins detected) (Homo sapiens, UniProt P51946); details: protein CCNH; U3A cells
[27] = biological target: proteins of U3A human fibrosarcoma cells (4462 proteins detected) (Homo sapiens, UniProt P23528); details: protein CFL1, U3A cells
[28] = biological target: proteins of U3A human fibrosarcoma cells (4462 proteins detected) (Homo sapiens, UniProt Q07020); details: protein RPL18; soluble abundance after heat, U3A cells
[29] = biological target: proteins of U3A human fibrosarcoma cells (4462 proteins detected) (Homo sapiens, UniProt O14737); details: protein PDCD5, U3A cells
[30] = biological target: proteins of U3A human fibrosarcoma cells (4462 proteins detected) (Homo sapiens, UniProt P10809); details: protein HSPD1; U3A, 10 μM, 2 h
Chain of proteins of U3A human fibrosarcoma cells (4462 proteins detected) (Homo sapiens, UniProt P10809) (P10809 27-573): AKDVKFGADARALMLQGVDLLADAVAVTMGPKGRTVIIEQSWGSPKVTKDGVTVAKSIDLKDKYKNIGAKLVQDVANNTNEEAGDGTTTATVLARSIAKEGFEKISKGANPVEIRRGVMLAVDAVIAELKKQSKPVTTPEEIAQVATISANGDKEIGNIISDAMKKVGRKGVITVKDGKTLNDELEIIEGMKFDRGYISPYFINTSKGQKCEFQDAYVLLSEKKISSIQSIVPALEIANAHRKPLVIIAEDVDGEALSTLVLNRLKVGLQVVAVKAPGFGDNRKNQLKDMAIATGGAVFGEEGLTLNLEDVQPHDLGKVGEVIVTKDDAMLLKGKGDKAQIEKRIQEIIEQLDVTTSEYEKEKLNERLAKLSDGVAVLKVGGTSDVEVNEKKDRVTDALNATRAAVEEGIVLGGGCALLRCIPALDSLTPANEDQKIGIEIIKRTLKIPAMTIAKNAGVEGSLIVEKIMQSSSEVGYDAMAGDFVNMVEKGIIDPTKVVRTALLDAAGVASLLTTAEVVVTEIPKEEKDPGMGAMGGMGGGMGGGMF

Chain of proteins of U3A human fibrosarcoma cells (4462 proteins detected) (Homo sapiens, UniProt Q9BRA2) (Q9BRA2 whole entry): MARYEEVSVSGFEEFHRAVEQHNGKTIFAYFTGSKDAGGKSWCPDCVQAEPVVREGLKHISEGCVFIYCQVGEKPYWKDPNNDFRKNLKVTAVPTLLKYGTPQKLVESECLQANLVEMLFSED
Chain of proteins of U3A human fibrosarcoma cells (4462 proteins detected) (Homo sapiens, UniProt Q9NXW2) (Q9NXW2 whole entry): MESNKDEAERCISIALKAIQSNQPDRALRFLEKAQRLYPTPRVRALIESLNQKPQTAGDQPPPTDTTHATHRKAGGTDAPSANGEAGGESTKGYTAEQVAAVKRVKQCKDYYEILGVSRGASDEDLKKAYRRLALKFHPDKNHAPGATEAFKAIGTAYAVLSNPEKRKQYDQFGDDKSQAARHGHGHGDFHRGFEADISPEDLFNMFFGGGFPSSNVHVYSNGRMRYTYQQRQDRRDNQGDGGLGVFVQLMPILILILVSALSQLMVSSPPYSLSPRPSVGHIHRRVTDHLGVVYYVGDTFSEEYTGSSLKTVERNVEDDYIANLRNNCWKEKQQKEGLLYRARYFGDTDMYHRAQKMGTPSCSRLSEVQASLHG
Chain of proteins of U3A human fibrosarcoma cells (4462 proteins detected) (Homo sapiens, UniProt Q9NVT9) (Q9NVT9 whole entry): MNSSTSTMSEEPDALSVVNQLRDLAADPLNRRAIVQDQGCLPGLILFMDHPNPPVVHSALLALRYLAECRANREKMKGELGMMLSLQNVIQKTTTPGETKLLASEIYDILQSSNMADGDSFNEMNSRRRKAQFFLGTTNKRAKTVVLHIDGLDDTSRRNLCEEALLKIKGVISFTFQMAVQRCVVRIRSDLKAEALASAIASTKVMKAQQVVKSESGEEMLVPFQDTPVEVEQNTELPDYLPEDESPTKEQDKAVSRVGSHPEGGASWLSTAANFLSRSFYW
Chain of proteins of U3A human fibrosarcoma cells (4462 proteins detected) (Homo sapiens, UniProt P07602) (P07602 60-524): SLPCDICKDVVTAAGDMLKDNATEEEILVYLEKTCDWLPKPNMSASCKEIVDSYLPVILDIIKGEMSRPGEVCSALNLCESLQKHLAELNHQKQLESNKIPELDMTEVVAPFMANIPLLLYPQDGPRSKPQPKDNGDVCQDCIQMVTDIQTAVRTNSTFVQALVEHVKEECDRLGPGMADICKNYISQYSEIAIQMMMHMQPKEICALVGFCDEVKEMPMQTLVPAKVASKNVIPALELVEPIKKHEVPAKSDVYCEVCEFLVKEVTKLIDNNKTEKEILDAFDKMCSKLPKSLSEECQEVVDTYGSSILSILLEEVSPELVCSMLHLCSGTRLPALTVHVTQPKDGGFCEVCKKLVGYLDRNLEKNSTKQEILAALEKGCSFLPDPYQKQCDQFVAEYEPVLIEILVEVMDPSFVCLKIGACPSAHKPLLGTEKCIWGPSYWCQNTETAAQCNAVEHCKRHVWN
Chain of proteins of U3A human fibrosarcoma cells (4462 proteins detected) (Homo sapiens, UniProt O95372) (O95372 whole entry): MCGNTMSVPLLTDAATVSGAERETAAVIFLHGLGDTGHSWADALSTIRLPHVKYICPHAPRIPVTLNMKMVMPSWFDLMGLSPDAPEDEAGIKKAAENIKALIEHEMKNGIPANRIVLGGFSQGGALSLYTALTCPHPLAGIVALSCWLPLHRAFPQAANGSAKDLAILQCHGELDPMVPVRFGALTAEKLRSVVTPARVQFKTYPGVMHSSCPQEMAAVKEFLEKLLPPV
Chain of proteins of U3A human fibrosarcoma cells (4462 proteins detected) (Homo sapiens, UniProt Q8N129) (Q8N129 22-248): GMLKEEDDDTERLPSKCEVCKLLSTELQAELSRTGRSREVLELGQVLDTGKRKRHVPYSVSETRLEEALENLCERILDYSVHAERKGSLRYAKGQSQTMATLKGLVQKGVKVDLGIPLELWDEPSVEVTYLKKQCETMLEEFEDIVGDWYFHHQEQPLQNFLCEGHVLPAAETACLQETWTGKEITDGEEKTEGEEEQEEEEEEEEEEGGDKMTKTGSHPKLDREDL
Chain of proteins of U3A human fibrosarcoma cells (4462 proteins detected) (Homo sapiens, UniProt P62873) (P62873 whole entry): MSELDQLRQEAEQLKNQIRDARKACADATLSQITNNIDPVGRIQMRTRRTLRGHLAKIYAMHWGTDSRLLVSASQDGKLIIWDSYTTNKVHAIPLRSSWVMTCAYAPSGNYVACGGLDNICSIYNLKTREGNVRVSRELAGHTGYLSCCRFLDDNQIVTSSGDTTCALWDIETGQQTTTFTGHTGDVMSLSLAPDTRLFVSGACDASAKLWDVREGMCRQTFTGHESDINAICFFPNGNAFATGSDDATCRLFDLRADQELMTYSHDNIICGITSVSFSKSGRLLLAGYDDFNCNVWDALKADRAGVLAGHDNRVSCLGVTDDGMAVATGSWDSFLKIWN
Chain of proteins of U3A human fibrosarcoma cells (4462 proteins detected) (Homo sapiens, UniProt P51946) (P51946 whole entry): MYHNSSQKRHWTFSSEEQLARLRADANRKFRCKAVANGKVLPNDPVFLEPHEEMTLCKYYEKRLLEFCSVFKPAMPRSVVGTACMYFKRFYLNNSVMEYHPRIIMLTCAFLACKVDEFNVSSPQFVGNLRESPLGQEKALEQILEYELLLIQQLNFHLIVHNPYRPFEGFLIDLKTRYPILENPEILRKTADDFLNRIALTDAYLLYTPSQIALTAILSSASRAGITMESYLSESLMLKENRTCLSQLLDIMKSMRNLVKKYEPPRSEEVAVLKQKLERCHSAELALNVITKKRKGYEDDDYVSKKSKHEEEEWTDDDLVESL
Chain of proteins of U3A human fibrosarcoma cells (4462 proteins detected) (Homo sapiens, UniProt Q6YHU6) (Q6YHU6 whole entry): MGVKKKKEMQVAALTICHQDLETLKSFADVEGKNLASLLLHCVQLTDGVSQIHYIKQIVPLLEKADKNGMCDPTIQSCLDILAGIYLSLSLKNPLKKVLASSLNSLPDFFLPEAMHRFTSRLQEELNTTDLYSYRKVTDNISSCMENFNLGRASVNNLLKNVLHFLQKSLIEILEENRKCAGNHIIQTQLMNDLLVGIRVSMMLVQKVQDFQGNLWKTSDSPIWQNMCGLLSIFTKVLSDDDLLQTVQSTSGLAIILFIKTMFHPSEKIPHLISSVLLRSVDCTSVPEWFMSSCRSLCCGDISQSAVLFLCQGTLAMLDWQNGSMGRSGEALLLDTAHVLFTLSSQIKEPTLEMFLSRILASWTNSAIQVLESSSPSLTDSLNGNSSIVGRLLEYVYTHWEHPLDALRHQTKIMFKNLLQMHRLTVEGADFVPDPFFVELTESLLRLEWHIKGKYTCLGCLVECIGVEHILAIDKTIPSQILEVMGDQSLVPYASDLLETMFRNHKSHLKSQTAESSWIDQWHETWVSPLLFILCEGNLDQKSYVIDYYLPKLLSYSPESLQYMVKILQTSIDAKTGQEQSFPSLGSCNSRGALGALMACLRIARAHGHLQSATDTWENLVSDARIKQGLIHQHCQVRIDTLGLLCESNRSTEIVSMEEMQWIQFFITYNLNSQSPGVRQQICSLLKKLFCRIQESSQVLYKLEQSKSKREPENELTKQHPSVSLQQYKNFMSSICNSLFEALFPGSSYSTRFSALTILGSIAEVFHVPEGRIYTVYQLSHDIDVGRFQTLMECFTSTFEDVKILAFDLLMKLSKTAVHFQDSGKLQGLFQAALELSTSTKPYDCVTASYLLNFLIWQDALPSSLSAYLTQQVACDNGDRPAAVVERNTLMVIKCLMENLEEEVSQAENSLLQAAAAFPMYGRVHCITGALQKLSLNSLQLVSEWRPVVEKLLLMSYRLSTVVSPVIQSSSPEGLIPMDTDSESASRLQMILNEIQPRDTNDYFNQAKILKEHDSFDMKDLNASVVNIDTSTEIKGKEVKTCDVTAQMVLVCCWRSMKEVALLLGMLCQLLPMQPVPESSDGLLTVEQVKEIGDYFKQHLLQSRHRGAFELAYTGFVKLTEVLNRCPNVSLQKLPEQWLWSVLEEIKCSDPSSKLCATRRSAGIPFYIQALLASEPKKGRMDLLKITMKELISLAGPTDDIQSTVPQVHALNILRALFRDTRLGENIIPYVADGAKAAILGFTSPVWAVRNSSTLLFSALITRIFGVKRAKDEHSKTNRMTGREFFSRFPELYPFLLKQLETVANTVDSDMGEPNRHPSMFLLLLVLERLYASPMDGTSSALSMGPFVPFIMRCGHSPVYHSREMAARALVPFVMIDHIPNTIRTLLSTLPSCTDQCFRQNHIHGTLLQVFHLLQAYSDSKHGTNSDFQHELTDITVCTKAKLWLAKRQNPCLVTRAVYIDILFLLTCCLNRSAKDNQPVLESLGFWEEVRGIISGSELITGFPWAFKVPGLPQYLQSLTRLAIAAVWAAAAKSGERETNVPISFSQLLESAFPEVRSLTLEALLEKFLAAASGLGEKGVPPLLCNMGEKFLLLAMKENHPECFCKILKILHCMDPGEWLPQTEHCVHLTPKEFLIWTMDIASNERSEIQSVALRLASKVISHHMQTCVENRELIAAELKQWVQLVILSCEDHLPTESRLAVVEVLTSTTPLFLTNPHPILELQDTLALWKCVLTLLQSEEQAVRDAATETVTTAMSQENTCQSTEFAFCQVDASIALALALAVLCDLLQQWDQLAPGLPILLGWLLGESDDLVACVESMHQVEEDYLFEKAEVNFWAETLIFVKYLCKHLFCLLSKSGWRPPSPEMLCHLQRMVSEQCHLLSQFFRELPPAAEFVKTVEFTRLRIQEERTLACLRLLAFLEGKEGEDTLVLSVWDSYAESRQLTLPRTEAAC
Chain of proteins of U3A human fibrosarcoma cells (4462 proteins detected) (Homo sapiens, UniProt P56277) (P56277 whole entry): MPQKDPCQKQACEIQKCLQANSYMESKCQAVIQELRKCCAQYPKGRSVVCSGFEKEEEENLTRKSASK

CCc1nc(N)nc(N)c1-c1ccc(Cl)cc1 [pyrimethamine]
Log2 (PYR/DMSO) [1]: 0.15 | Log2 (PYR/DMSO) [2]: 0.18 | Log2 (PYR/DMSO) [3]: 0.15 | Log2 (PYR/DMSO) [4]: -0.04 | Log2 (PYR/DMSO) [5]: 0.18 | Log2 (PYR/DMSO) [6]: 0.15 | Log2 (PYR/DMSO) [7]: 0.14 | Log2 (PYR/DMSO) [8]: 0.22 | Log2 (PYR/DMSO) [9]: 0.14 | Log2 (PYR/DMSO), HMGB2 [10]: -0.14 | Log2 (PYR/DMSO) [11]: -0.05 | Log2 (PYR/DMSO) [12]: -0.04 | Log2 (PYR/DMSO) [13]: -0.03 | Log2 (PYR/DMSO), FAM162A [14]: -0.37 | Log2 (PYR/DMSO) [15]: 0.20 | Log2 (PYR/DMSO), CMC4 [16]: 0.24 | Log2 (PYR/DMSO) [17]: 0.16 | Log2 (PYR/DMSO) [18]: -0.04 | Log2 (PYR/DMSO) [19]: -0.04 | Log2 (PYR/DMSO) [20]: 0.16 | Log2 (PYR/DMSO) [21]: -0.04 | Log2 (PYR/DMSO) [22]: 0.16 | Log2 (PYR/DMSO), CDK5RAP2 [23]: -0.21 | Log2 (PYR/DMSO) [24]: 0.21 | Log2 (PYR/DMSO) [25]: 0.15 | Log2 (PYR/DMSO) [26]: 0.16 | Log2 (PYR/DMSO) [27]: -0.04 | Log2 (PYR/DMSO) [28]: 0.15 | Log2 (PYR/DMSO) [29]: -0.04 | Log2 (PYR/DMSO), HSPD1 [30]: 0.35
